Source: PubChem BioAssay (NCI)
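Cultured in 96-well plates, cells were exposed to test compound for 48 hours across five concentrations. GI50 is the concentration that inhibits growth by half. TGI is the concentration that stops growth completely.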

Columns and labels:
Test in all cases: NCI-60 cell line screen, 48 h
ACHN renal = test system: ACHN renal
HCT-116 colon = test system: HCT-116 colon
MALME-3M melanoma = test system: MALME-3M melanoma
HOP-62 NSCLC = test system: HOP-62 NSCLC
OVCAR-3 ovarian = test system: OVCAR-3 ovarian
TK-10 renal = test system: TK-10 renal
SNB-19 CNS = test system: SNB-19 CNS
MDA-MB-231 breast = test system: MDA-MB-231 breast
NCI/ADR-RES ovarian = test system: NCI/ADR-RES ovarian
BT-549 breast = test system: BT-549 breast

SMILES	TGI (ACHN renal) [µM]	TGI (HCT-116 colon) [µM]	TGI (MALME-3M melanoma) [µM]	TGI (HOP-62 NSCLC) [µM]	TGI (OVCAR-3 ovarian) [µM]	TGI (TK-10 renal) [µM]	TGI (SNB-19 CNS) [µM]	GI50 (MDA-MB-231 breast) [µM]	TGI (MDA-MB-231 breast) [µM]	GI50 (NCI/ADR-RES ovarian) [µM]	TGI (NCI/ADR-RES ovarian) [µM]	GI50 (ACHN renal) [µM]	GI50 (BT-549 breast) [µM]	TGI (BT-549 breast) [µM]	GI50 (HCT-116 colon) [µM]	GI50 (HOP-62 NSCLC) [µM]	GI50 (OVCAR-3 ovarian) [µM]	GI50 (TK-10 renal) [µM]	GI50 (SNB-19 CNS) [µM]
Clc1ccccc1C1N2CCCCC2[C@@H]2c3[nH]c4ccccc4c3CCN12 (some centres undefined)	45.8	32.6	22.1	59.3	32.6	60	82.7	–	–	–	–	–	–	–	–	–	–	–	–
O=C(N[C@@H]1C=CCC[C@@H]1c1ccccc1)OCc1ccccc1	64.7	34.6	37	34.6	31.2	24.6	99.6	–	–	–	–	–	–	–	–	–	–	–	–
COc1ccc(OC)c(/C=C/C(=O)C(C)(C)C)c1	39.7	31.8	45.3	50.8	49.5	72.7	32.4	–	–	–	–	–	–	–	–	–	–	–	–
CC1(C(=O)NCCN(CCNC(=O)C2(C)CC3(C)CC(C)(C2)C(=O)NC3=O)CCNC(=O)C2(C)CC3(C)CC(C)(C2)C(=O)NC3=O)CC2(C)CC(C)(C1)C(=O)NC2=O (centres undefined)	> 100	> 100	–	> 100	> 100	–	> 100	–	–	–	–	–	–	–	–	–	–	–	–
CCOC(=O)C1(Br)C(c2ccccc2)NC(=O)N(C2OC(COC(=O)c3ccccc3)C(OC(=O)c3ccccc3)C2OC(=O)c2ccccc2)C1(C)Br (centres undefined)	> 100	52.2	66.7	> 100	> 89.6	> 100	> 100	–	–	–	–	–	–	–	–	–	–	–	–
CCOC(=O)C12CCSC1C1(C#N)C(C#N)=CC2(N=P(c2ccccc2)(c2ccccc2)c2ccccc2)n2c(=O)n(-c3ccccc3)c(=O)n21 (centres undefined)	> 100	> 100	> 100	> 100	89.8	> 100	> 100	–	–	–	–	–	–	–	–	–	–	–	–
C=CC1(c2ccccc2Cl)N/C(=C/OCC)CO1 (centres undefined)	> 100	> 100	> 100	> 100	> 100	> 100	> 100	–	–	–	–	–	–	–	–	–	–	–	–
Cc1cc2c(=O)cc(-c3ccc(C(F)(F)F)cc3)oc2c(C(=O)O)c1C	> 100	> 100	> 100	–	> 100	> 100	> 100	–	–	–	–	–	–	–	–	–	–	–	–
COc1ccc(N2CCN(CN3CCN(c4ccc(OC)cc4)C3)C2)cc1	96.9	50	–	> 100	> 100	> 100	> 100	> 100	> 100	> 100	> 100	33.5	79.7	> 100	20.2	81.5	> 100	> 100	> 100
NC1=NN(c2ccccc2)C(=O)C1/C(=N\NC(=O)c1cc2ccccc2cc1O)C(=O)Nc1nc([N+](=O)[O-])cs1 (centres undefined)	> 100	> 87.9	> 100	> 100	98.6	> 100	> 100	–	–	–	–	–	–	–	–	–	–	–	–
Cc1ccc(/C=N/NS(=O)(=O)c2ccccc2)cc1	> 100	> 100	> 100	> 100	> 100	> 100	–	–	–	–	–	–	–	–	–	–	–	–	–
CCOc1ccccc1NC(=O)C(=O)C(C(=O)c1ccc2ccccc2c1)C1OC(=O)c2ccccc21 (centres undefined)	> 100	22.3	30.2	31.2	52	54.8	22	–	–	–	–	–	–	–	–	–	–	–	–
O=C(c1ccccn1)c1nc(-c2ccc(Cl)c(Cl)c2)nc2ccc(Cl)cc12	> 100	33.4	> 100	> 100	> 100	> 100	–	–	–	–	–	–	–	–	–	–	–	–	–
O=C1NC2(CCCC2)/C(=N\O)C12CCCC2	> 100	> 100	> 100	> 100	> 100	> 100	> 100	–	–	–	–	–	–	–	–	–	–	–	–
